The supplement of paper PMC13380429

Legend:
Details in all cases: 72 h
[1] = system: HepG2; assay: cell viability relative to DMSO; higher = less toxic
[2] = system: Calu-3; assay: as above
[3] = system: Vero E6; assay: as above
[4] = system: Caco-2; assay: as above
[5] = system: U2OS; assay: as above
[6] = system: HepG2; assay: relative viability EC50 (midpoint between 100% and the lowest measured viability); higher = less toxic
[7] = system: Calu-3; assay: as above
[8] = system: Vero E6; assay: as above
[9] = system: Caco-2; assay: as above
[10] = system: U2OS; assay: as above
[11] = system: HepG2; assay: drug sensitivity score (DSS) for viability; higher = more toxic; extreme values may be limits of the assay
[12] = system: Calu-3; assay: as above
[13] = system: Vero E6; assay: as above
[14] = system: Caco-2; assay: as above
[15] = system: U2OS; assay: as above

Structure (SMILES) | cell viability ([1]; 1 nM) | cell viability ([1]; 10 nM) | cell viability ([1]; 100 nM) | cell viability ([1]; 1000 nM) | cell viability ([1]; 10000 nM) | cell viability ([2]; 1 nM) | cell viability ([2]; 10 nM) | cell viability ([2]; 100 nM) | cell viability ([2]; 1000 nM) | cell viability ([2]; 10000 nM) | cell viability ([3]; 1 nM) | cell viability ([3]; 10 nM) | cell viability ([3]; 100 nM) | cell viability ([3]; 1000 nM) | cell viability ([3]; 10000 nM) | cell viability ([4]; 1 nM) | cell viability ([4]; 10 nM) | cell viability ([4]; 100 nM) | cell viability ([4]; 1000 nM) | cell viability ([4]; 10000 nM) | cell viability ([5]; 1 nM) | cell viability ([5]; 10 nM) | cell viability ([5]; 100 nM) | cell viability ([5]; 1000 nM) | cell viability ([5]; 10000 nM) | relative viability EC50 [6] | relative viability EC50 [7] | relative viability EC50 [8] | relative viability EC50 [9] | relative viability EC50 [10] | drug sensitivity score [11] | drug sensitivity score [12] | drug sensitivity score [13] | drug sensitivity score [14] | drug sensitivity score [15]
CCOc1cc2ncc(C#N)c(Nc3ccc(OCc4ccccn4)c(Cl)c3)c2cc1NC(=O)/C=C/CN(C)C [neratinib] | 111% | 97.3% | 88.2% | 77.6% | 17.8% | 93.4% | 69.6% | 43.9% | 34.9% | 33.7% | 104% | 102% | 90.9% | 64.1% | 17.5% | 98.7% | 93.4% | 85.1% | 54.7% | 35% | 93.6% | 96.7% | 96.7% | 88% | 75.7% | 1.59 µM | 0.0124 µM | 1.14 µM | 0.365 µM | > 10 µM | 7.5 | 22.8 | 8.7 | 10.3 | 1.8
CNCCC(Oc1ccccc1OC)c1ccccc1 (stereo not given) [nisoxetine] | 113% | 105% | 104% | 108% | 99% | 94% | 107% | 98.2% | 109% | 102% | 107% | 104% | 101% | 103% | 95.6% | 105% | 96.2% | 109% | 98.6% | 107% | 105% | 98.3% | 102% | 99% | 102% | > 10 µM | > 10 µM | > 10 µM | > 10 µM | > 10 µM | 0 | 0 | 0 | 0 | 0
CN(C)CC[C@@]1(c2ccc(Cl)cc2)Cc2ccccc2C(=O)O1 (racemic) [AC-7954-(+/-)] | 89.8% | 104% | 104% | 96.4% | 94.8% | 98.2% | 104% | 103% | 96.5% | 104% | 91.4% | 94.8% | 88.3% | 92.8% | 100% | 103% | 92.4% | 98.3% | 102% | 106% | 99% | 94.9% | 99.4% | 105% | 102% | > 10 µM | > 10 µM | > 10 µM | > 10 µM | > 10 µM | 0 | 0 | 0 | 0 | 0
CNCCN(C)Cc1c[nH]nc1-c1ccc(O[C@H]2C[C@H](OCCC3CCOCC3)C2)cc1 | 98% | 102% | 109% | 96.8% | 90.9% | 96.2% | 97.3% | 94.1% | 100% | 100% | 100% | 105% | 95.9% | 102% | 101% | 99.7% | 100% | 107% | 90.4% | 99.6% | 99.5% | 97.6% | 100% | 96.4% | 97% | > 10 µM | > 10 µM | > 10 µM | > 10 µM | > 10 µM | 0 | 0 | 0 | 0 | 0
CCNC(=O)NS(=O)(=O)c1sc(CC(C)C)cc1-c1ccc(Cn2c(-c3ccccc3)nc(OC)c2C=O)cc1 [AVE-0991] | 102% | 99.6% | 101% | 108% | 102% | 107% | 104% | 110% | 93.8% | 97.9% | 99.9% | 98.3% | 97.7% | 93.3% | 96% | 108% | 97.5% | 99.1% | 90.1% | 97.7% | 104% | 99.7% | 103% | 100% | 102% | > 10 µM | > 10 µM | > 10 µM | > 10 µM | > 10 µM | 0 | 0 | 0 | 0 | 0
Oc1cccc2cccnc12 [oxyquinoline] | 119% | 79.7% | 110% | 102% | 80.9% | 101% | 114% | 95.5% | 104% | 98.8% | 96% | 100% | 94.2% | 103% | 90.8% | 109% | 96.4% | 84.7% | 93.2% | 88.7% | 101% | 97.5% | 103% | 97.5% | 100% | > 10 µM | > 10 µM | > 10 µM | > 10 µM | > 10 µM | 0.3 | 0 | 0 | 3.1 | 0
O=C(O)Cc1cccnc1C(=O)O [homoquinolinic-acid] | 104% | 93.8% | 95.3% | 94% | 93.9% | 92.7% | 89.2% | 97.4% | 95.6% | 111% | 105% | 106% | 102% | 103% | 94% | 99.5% | 104% | 101% | 96.3% | 105% | 97.4% | 100% | 100% | 99.6% | 99.7% | > 10 µM | > 10 µM | > 10 µM | > 10 µM | > 10 µM | 0 | 0 | 0 | 0 | 0
Cc1ccc(C)c(OCCCC(C)(C)C(=O)O)c1 [gemfibrozil] | 98.2% | 99.9% | 102% | 106% | 104% | 104% | 104% | 109% | 93.1% | 105% | 98.4% | 101% | 96.5% | 100% | 95.9% | 102% | 107% | 106% | 93.8% | 101% | 104% | 101% | 104% | 99.1% | 102% | > 10 µM | > 10 µM | > 10 µM | > 10 µM | > 10 µM | 0 | 0 | 0 | 0 | 0
COc1nccc(-c2c(-c3ccc(F)cc3)ncn2[C@H]2CC[C@H](O)CC2)n1 | 98.9% | 97.6% | 103% | 104% | 108% | 99.5% | 106% | 82.2% | 81.7% | 85.6% | 94.7% | 94.3% | 92.7% | 87.5% | 101% | 84.5% | 90.9% | 93.1% | 88.6% | 93.9% | 95.9% | 102% | 93.5% | 98.7% | 98.8% | > 10 µM | > 10 µM | > 10 µM | > 10 µM | > 10 µM | 0 | 3.8 | 0 | 0 | 0
COC(=O)[C@@H](N)CS [mecysteine] | 108% | 107% | 99.6% | 91.1% | 105% | 104% | 106% | 87.2% | 109% | 99.2% | 95.8% | 97.5% | 98.5% | 88.6% | 101% | 96.1% | 95% | 97.7% | 99.8% | 102% | 98.2% | 101% | 96.3% | 100% | 95.3% | > 10 µM | > 10 µM | > 10 µM | > 10 µM | > 10 µM | 0 | 0 | 0 | 0 | 0
CN[C@H](CNC(=O)N1CCC[C@@H]([C@@H](OCCNC(=O)OC)c2cccc(Cl)c2)C1)C[C@H]1CCCOC1 | 101% | 108% | 92.5% | 98.6% | 95% | 103% | 96.2% | 102% | 102% | 98.1% | 101% | 101% | 98.4% | 107% | 98.5% | 98.2% | 96.1% | 97.1% | 90.1% | 94.5% | 97.3% | 98.1% | 106% | 97.7% | 99.1% | > 10 µM | > 10 µM | > 10 µM | > 10 µM | > 10 µM | 0 | 0 | 0 | 0 | 0
CCNC(=O)c1noc(-c2cc(C(C)C)c(O)cc2O)c1-c1ccc(CN2CCOCC2)cc1 [NVP-AUY922] | 103% | 27.5% | 1.2% | 0.8% | 1.2% | 84.2% | 83.9% | 46% | 37.3% | 29.6% | 104% | 106% | 47.1% | 26.6% | 25.6% | 100% | 77.1% | 30.3% | 28.2% | 31.4% | 93% | 57.9% | 3% | 3.5% | 1% | 0.0067 µM | 0.0281 µM | 0.0702 µM | 0.0149 µM | 0.012 µM | 38.6 | 20.5 | 19.8 | 25.1 | 34.8
CCCCOC(=O)c1ccc(N)cc1 [butamben] | 104% | 93.6% | 124% | 112% | 124% | 98.6% | 96.7% | 94.2% | 93.7% | 94.1% | 94.2% | 102% | 96.3% | 92.8% | 82.3% | 108% | 94% | 95.6% | 90.9% | 97.5% | 98.7% | 96.5% | 102% | 94.9% | 103% | > 10 µM | > 10 µM | > 10 µM | > 10 µM | > 10 µM | 0 | 0 | 0.7 | 0 | 0
CN1CCN(C(c2ccccc2)c2ccccc2)CC1 [cyclizine] | 94.7% | 99.1% | 103% | 104% | 97.6% | 104% | 98.9% | 85.8% | 102% | 99.9% | 97.7% | 96.3% | 93.7% | 96% | 102% | 95.7% | 101% | 99.9% | 94.9% | 103% | 105% | 94% | 101% | 95.6% | 97.5% | > 10 µM | > 10 µM | > 10 µM | > 10 µM | > 10 µM | 0 | 0 | 0 | 0 | 0
